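Interpolation was linear, between the two tested concentrations surrounding the appropriate level; five concentrations were tested over 48 hours in 96-well plates. The concentration for full growth arrest is given as TGI.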
Assays:
Test in all cases: NCI tumour cell line growth inhibition, 48 h
[1] = test system: UO-31 renal
[2] = test system: IGROV1 ovarian
[3] = test system: MCF7 breast
[4] = test system: HCT-15 colon
[5] = test system: HCT-116 colon
[6] = test system: HS 578T breast
[7] = test system: A498 renal
[8] = test system: MOLT-4 leukemia
[9] = test system: OVCAR-5 ovarian
[10] = test system: SF-539 CNS
[11] = test system: K-562 leukemia
[12] = test system: SNB-75 CNS
[13] = test system: SK-MEL-28 melanoma
[14] = test system: COLO 205 colon
[15] = test system: TK-10 renal
[16] = test system: SK-OV-3 ovarian
[17] = test system: LOX IMVI melanoma
[18] = test system: MDA-MB-435
[19] = test system: T-47D breast
[20] = test system: NCI-H460 lung
[21] = test system: CCRF-CEM leukemia
[22] = test system: KM12 colon
[23] = test system: A549 NSCLC
[24] = test system: MDA-N
[25] = test system: UACC-257 melanoma
[26] = test system: HT29 colon
[27] = test system: MALME-3M melanoma
[28] = test system: MDA-MB-231 breast
[29] = test system: M14 melanoma
[30] = test system: ACHN renal
[31] = test system: HL-60(TB) leukemia
[32] = test system: NCI-H226 lung
[33] = test system: U251 CNS
[34] = test system: PC-3 prostate
[35] = test system: SN12C renal
[36] = test system: SK-MEL-2 melanoma
[37] = test system: HOP-62 NSCLC
[38] = test system: SW-620 colon
[39] = test system: SR leukemia
[40] = test system: SK-MEL-5 melanoma
[41] = test system: HCC-2998 colon
[42] = test system: RPMI-8226 leukemia
[43] = test system: BT-549 breast
[44] = test system: 786-0 renal
[45] = test system: OVCAR-4 ovarian
[46] = test system: SF-268 CNS
[47] = test system: RXF 393 renal
[48] = test system: NCI-H23 lung
[49] = test system: NCI/ADR-RES ovarian
[50] = test system: UACC-62 melanoma
[51] = test system: DU-145 prostate
[52] = test system: HOP-92 NSCLC
[53] = test system: SNB-19 CNS
[54] = test system: SF-295 CNS
[55] = test system: OVCAR-3 ovarian
[56] = test system: CAKI-1 renal
[57] = test system: EKVX NSCLC
[58] = test system: NCI-H522 lung
[59] = test system: OVCAR-8 ovarian

## COC(=O)C(Cc1ccccc1)NC(=O)CSc1nnc(COc2ccc(Cl)cc2)n1-c1ccccc1 (stereo not drawn)
[1]
  TGI: 3.34 µM
[2]
  TGI: > 100 µM
[3]
  TGI: 58.5 µM
[4]
  TGI: > 100 µM
[5]
  TGI: 54.6 µM
[6]
  TGI: > 100 µM
[7]
  TGI: 56.1 µM
[8]
  TGI: > 100 µM
[9]
  TGI: 54.6 µM
[10]
  TGI: 51.3 µM
[11]
  TGI: > 100 µM
[12]
  TGI: 56.1 µM
[13]
  TGI: 78.6 µM
[14]
  TGI: 41.8 µM
[15]
  TGI: 40 µM
[16]
  TGI: 63 µM
[17]
  TGI: 28.3 µM
[18]
  TGI: 45.6 µM
[19]
  TGI: > 100 µM
[20]
  TGI: 35.7 µM
[21]
  TGI: 63.3 µM
[22]
  TGI: > 100 µM
[23]
  TGI: > 100 µM
[24]
  TGI: 43.7 µM
[25]
  TGI: 26.2 µM
[26]
  TGI: 53.2 µM
[27]
  TGI: 42.7 µM
[28]
  TGI: 41.8 µM
[29]
  TGI: 35.1 µM
[30]
  TGI: 30.4 µM
[31]
  TGI: 46.6 µM
[32]
  TGI: > 100 µM
[33]
  TGI: 32.9 µM
[34]
  TGI: 59 µM
[35]
  TGI: 48.9 µM
[36]
  TGI: 33.2 µM
[37]
  TGI: 45 µM
[38]
  TGI: > 100 µM
[39]
  TGI: > 100 µM
[40]
  TGI: 31.4 µM
[41]
  TGI: 31.8 µM
[42]
  TGI: 73.5 µM
[43]
  TGI: 69.6 µM
[44]
  TGI: 29.8 µM
[45]
  TGI: 64.9 µM
[46]
  TGI: > 100 µM
[47]
  TGI: 43 µM
[48]
  TGI: 53.3 µM
[49]
  TGI: 55.2 µM
[50]
  TGI: 27.9 µM
[51]
  TGI: > 100 µM
[52]
  TGI: 76.7 µM
[53]
  TGI: > 100 µM

## C[N+]1(C)C2CC(OC(=O)C(CO)c3ccccc3)CC1C1OC12 (stereo not drawn)
[1]
  TGI: > 100 µM
[2]
  TGI: > 100 µM
[3]
  TGI: > 100 µM
[4]
  TGI: > 100 µM
[5]
  TGI: > 100 µM
[54]
  TGI: > 100 µM
[6]
  TGI: > 100 µM
[7]
  TGI: > 100 µM
[8]
  TGI: > 100 µM
[9]
  TGI: > 100 µM
[10]
  TGI: > 100 µM
[11]
  TGI: > 100 µM
[12]
  TGI: > 100 µM
[13]
  TGI: > 100 µM
[14]
  TGI: > 100 µM
[15]
  TGI: > 100 µM
[16]
  TGI: > 100 µM
[17]
  TGI: > 100 µM
[18]
  TGI: > 100 µM
[19]
  TGI: > 100 µM
[21]
  TGI: > 100 µM
[22]
  TGI: > 100 µM
[23]
  TGI: > 100 µM
[24]
  TGI: > 100 µM
[25]
  TGI: > 100 µM
[55]
  TGI: > 100 µM
[26]
  TGI: > 100 µM
[27]
  TGI: > 100 µM
[28]
  TGI: > 100 µM
[29]
  TGI: > 100 µM
[30]
  TGI: > 100 µM
[56]
  TGI: > 100 µM
[31]
  TGI: > 100 µM
[32]
  TGI: > 100 µM
[33]
  TGI: > 100 µM
[34]
  TGI: > 100 µM
[35]
  TGI: > 100 µM
[36]
  TGI: > 100 µM
[37]
  TGI: > 100 µM
[38]
  TGI: > 100 µM
[39]
  TGI: > 100 µM
[40]
  TGI: > 100 µM
[42]
  TGI: > 100 µM
[43]
  TGI: > 100 µM
[44]
  TGI: > 100 µM
[45]
  TGI: > 100 µM
[57]
  TGI: > 100 µM
[47]
  TGI: > 100 µM
[48]
  TGI: > 100 µM
[58]
  TGI: > 100 µM
[49]
  TGI: > 100 µM
[59]
  TGI: > 100 µM
[50]
  TGI: > 100 µM
[51]
  TGI: > 100 µM
[53]
  TGI: > 100 µM
